Measured values from patent US12110299B2, “Thiazole derivatives and pharmaceutically acceptable salts thereof” (YUNGJIN PHARM. CO., LTD., priority 2018, dated 2024).

Columns and labels:
HepG2 cells = assay: HepG2 cell viability assay (CCK-8); assay type: cell-based, human; conditions: Homo sapiens, HepG2, 72 h
Experimental: The ability to inhibit the proliferation of HepG2 cells, which are human hepatocellular carcinoma cells, was measured through the in vitro cell viability assay. Cells were cultured at 37° C. in a humidified condition in the presence of 5% CO2 using a culture medium of MEM (Welgene)+10% FBS (Gibco)+1% penicillin/streptomycin (Gibco). […] Cell viability was measured by CCK-8 method using tetrazolium salt, and the ability of the compounds according to the present invention to inhibit cancer cell proliferation was calculated.

MDA-MB-468 cells = assay: Anti-proliferative effect on MDA-MB-468 cells, IC50 (MTT); assay type: cell-based; conditions: Homo sapiens, MDA-MB-468, 72 h
Experimental: The compounds of the present invention were tested at different concentrations (from 1000 nM to 1 nM) to assess their ability for inhibiting the proliferation of MDAMB-468 cells. Cells were cultivated in RPMI 1640 (Welgene)+10% FBS (Gibco)+1% penicillin/streptomycin (Gibco) and cultured at 37° C. in a humidified chamber in the presence of 5% C02.
MDA-MB-468 cells cultured in 96-well cell culture plates were treated with the compounds of the present invention and incubated for 72 hours.

| Compound | IC50 (HepG2 cells) | IC50 (MDA-MB-468 cells) |
| --- | --- | --- |
| C[C@H](C(=O)Nc1ncc(Cl)s1)c1cccc(-c2cnc(NC(=O)/C=C/CN3CC4CC3CO4)cn2)c1 (stereo partly drawn) [Example 94, (E)-4-(2-oxa-5-azabicyclo[2.2.1]heptan-5-yl)-N-(5-(3-((S)-1-((5-chlorothiazol-2-yl)amino)-1-oxopropan-2-yl)phenyl)pyrazin-2-yl)but-2-enamide] | 25 nM | 59 nM |
| C[C@H](C(=O)Nc1ncc(C(F)(F)F)s1)c1cccc(-c2cnc(NC(=O)/C=C/CN3CC4CC3CO4)cn2)c1 (stereo partly drawn) [Example 96, (E)-4-(2-oxa-5-azabicyclo[2.2.1]heptan-5-yl)-N-(5-(3-((S)-1-oxo-1-((5-(trifluoromethyl)thiazol-2-yl)amino)propan-2-yl)phenyl)pyrazin-2-yl)but-2-enamide] | 19 nM | 68 nM |
| C[C@H](C(=O)Nc1ncc(C(F)(F)F)s1)c1cccc(-c2cnc(NC(=O)/C=C/CN(C)C)c(F)c2)c1 [Example 99, (S,E)-4-(dimethylamino)-N-(3-fluoro-5-(3-(1-oxo-1-((5-(trifluoromethyl)thiazol-2-yl)amino)propan-2-yl)phenyl)pyridin-2-yl)but-2-enamide] | 5 nM | 23 nM |
| COc1cc(-c2cccc([C@H](C)C(=O)Nc3ncc(C(F)(F)F)s3)c2)cnc1NC(=O)/C=C/CN(C)C [Example 100, (S,E)-4-(dimethylamino)-N-(3-methoxy-5-(3-(1-oxo-1-((5-(trifluoromethyl)thiazol-2-yl)amino)propan-2-yl)phenyl)pyridin-2-yl)but-2-enamide] | 8 nM | 56 nM |
| C[C@H](C(=O)Nc1ncc(C(F)(F)F)s1)c1cccc(-c2cnc(NC(=O)/C=C/CN3CCCC3)cn2)c1 [Example 102, (S,E)-N-(5-(3-(1-oxo-1-((5-(trifluoromethyl)thiazol-2-yl)amino)propan-2-yl)phenyl)pyrazin-2-yl)-4-(pyrrolidin-1-yl)but-2-enamide] | 13 nM | 57 nM |
| C[C@H](C(=O)Nc1ncc(C(F)(F)F)s1)c1cccc(-c2cnc(NC(=O)/C=C/CN3CCC3)cn2)c1 [Example 103, (S,E)-4-(azetidin-1-yl)-N-(5-(3-(1-oxo-1-((5-(trifluoromethyl)thiazol-2-yl)amino)propan-2-yl)phenyl)pyrazin-2-yl)but-2-enamide] | 14 nM | 68 nM |
| C[C@H](C(=O)Nc1ncc(C2CCC2)s1)c1cccc(-c2cnc(NC(=O)/C=C/CN(C)C)cn2)c1 [Example 104, (S,E)-N-(5-(3-(1-((5-cyclobutylthiazol-2-yl)amino)-1-oxopropan-2-yl)phenyl)pyrazin-2-yl)-4-(dimethylamino)but-2-enamide] | 8 nM | 44 nM |
| CC(C(=O)Nc1ncc(C(F)(F)F)s1)c1cncc(-c2cnc(NC(=O)/C=C/CN(C)C)c(C#N)c2)c1 (centres unmarked) [Example 108, (E)-N-(5-cyano-5′-(1-oxo-1-((5-(trifluoromethyl)thiazol-2-yl)amino)propan-2-yl)-[3,3′-bipyridin]-6-yl)-4-(dimethylamino)but-2-enamide] | 4.6 nM | 31 nM |
| COc1nc(-c2cccc([C@H](C)C(=O)Nc3ncc(C(F)(F)F)s3)c2)cnc1NC(=O)/C=C/CN(C)C [Example 109, (S,E)-4-(dimethylamino)-N-(3-methoxy-5-(3-(1-oxo-1-((5-(trifluoromethyl)thiazol-2-yl)amino)propan-2-yl)phenyl)pyrazin-2-yl)but-2-enamide] | 2.6 nM | 31 nM |
| C[C@H](C(=O)Nc1ncc(C(F)(F)F)s1)c1cccc(-c2cnc3c(c2)CCN3C(=O)/C=C/CN(C)C)c1 [Example 110, (S,E)-2-(3-(1-(4-(dimethylamino)but-2-enoyl)-2,3-dihydro-1H-pyrrolo[2,3-b]pyridin-5-yl)phenyl)-N-(5-(trifluoromethyl)thiazol-2-yl)propanamide] | 17.4 nM | 74 nM |
